Results reported in BindingDB's records for patent US12435087 (Cellarity, 2025).

Columns and labels:
[1] = target: T1, DCN1-like protein 1 (Homo sapiens, UniProt Q96GG9); experiment: TR-FRET Assay (1 hour)
Experimental: (§1) The DCN1 protein was biotinylated (EZ sulfo-NHS-LC-biotin; Thermofisher) for labeling with streptavidin terbium (Tb) cryptate in the reaction. The probe was changed to a non-covalent DCN1 inhibitor labeled with carboxyfluorescein (FAM; Zhou et al., Nat Commun. 2017; 8: 1150. Doi: 10.1038/s41467-017-01243-7). Buffer conditions were modified to enhance protein stability by exchanging Tween20 for TritonX and increasing NaCl to 200 mM. The compounds were screened against 5 nM DCN1 and 20 nM FAM-probe or 0.31 nM DCN1 and 900 nM total probe (100 nM FAM-labeled plus 800 nM unlabeled). The TR-FRET ratio between Tb-DCN1 and the FAM-labeled probe was measured in a 384-well opti-plate (Perkin Elmer) using a plate reader (BMG) at 1 hour after treatment with compound (final DMSO concentration of 0.1%).

[2] = target: T1, DCN1-like protein 1; experiment: TR-FRET Assay (24 hour)
Experimental: as §1, with “24 hrs” for “1 hour”

T1 sequence (Q96GG9 whole entry): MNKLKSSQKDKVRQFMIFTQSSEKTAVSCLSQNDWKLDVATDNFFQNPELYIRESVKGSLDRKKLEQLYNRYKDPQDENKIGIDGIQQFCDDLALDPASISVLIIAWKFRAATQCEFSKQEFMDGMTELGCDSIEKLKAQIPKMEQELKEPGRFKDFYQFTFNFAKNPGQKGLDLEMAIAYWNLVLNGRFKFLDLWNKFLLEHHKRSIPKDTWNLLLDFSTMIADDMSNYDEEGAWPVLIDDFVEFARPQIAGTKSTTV

SMILES | IC50 [1] | IC50 [2]
C=CS(=O)(=O)Nc1cccc([C@H]2c3c(C)nn(-c4ccccc4)c3N(CC)C(=O)[C@@H]2NC(=O)c2cccc(C(F)(F)F)c2)c1 (racemic) [US12435087, Compound I-5] | < 200 nM | 
CCN1C(=O)[C@H](NC(=O)c2cccc(C(F)(F)F)c2)[C@@H](c2cccc(NC(=O)/C=C/CN(C)C)c2)c2c(C)nn(-c3ccccc3)c21 (racemic) [US12435087, Compound I-38] |  | < 200 nM
C=C(CN(C)C1COC1)C(=O)N(C)Cc1cccc([C@@H]2c3cnn(-c4ccccc4)c3N(CC)C(=O)[C@H]2NC(=O)c2ccn(C3CC3)n2)c1 [US12435087, Compound I-239] |  | < 200 nM
C=C(CN(C)C1COC1)C(=O)N(C)Cc1cccc([C@@H]2c3cnn(-c4ccccc4)c3N(CC)C(=O)[C@H]2NC(=O)c2nccc(C(F)(F)F)n2)c1 [US12435087, Compound I-254] |  | < 200 nM
C=C(CN1CC2CC(C1)O2)C(=O)N(C)Cc1cccc([C@@H]2c3cnn(-c4ccccc4)c3N(CC)C(=O)[C@H]2NC(=O)c2ccn(C3CC3)n2)c1 [US12435087, Compound I-258] |  | < 200 nM
C=C(CN1CCOCC1)C(=O)NCc1cccc([C@@H]2c3cnn(-c4ccccc4)c3N(CC)C(=O)[C@H]2NC(=O)c2ccn(C3CC3)n2)c1 [US12435087, Compound I-280] | < 200 nM | 
CCN1C(=O)[C@@H](NC(=O)c2nccc(C(F)(F)F)n2)[C@H](c2cccc(C(=O)N3C[C@H](F)C[C@H]3C#N)c2)c2cnn(-c3ccccc3)c21 [US12435087, Compound I-350] | 1000 to 3000 nM | 
C=C(CN(C)C1COC1)C(=O)NCc1cccc([C@@H]2c3cnn(-c4ccccc4)c3N(CC)C(=O)[C@H]2NC(=O)c2ccn(C(F)(F)F)n2)c1 [US12435087, Compound I-378] | < 200 nM | 
